Results taken from PMC11249646, “Small-Molecule Disruptors of the Interaction between Calcium- and Integrin-Binding Protein 1 and Integrin αIIbβ3 as Novel Antiplatelet Agents” (ACS Pharmacology & Translational Science, 2024).
Values after ≈ are worked out from the molar mass of the structure shown. Values joined by “and” are separate entries in the source; they are usually repeats but may differ in a detail not shown here. Identical values can stand only once. Like-named read-outs stand apart in the source and are kept apart here. Primed or numbered codes have the meaning given here. Where no end group is shown, it is not given here. FITC″ = fluorescein isothiocyanate label; FITC′ = not defined here

T1: CIB1 and αIIb interaction (CIB1-GST : F-αIIb peptide) (Homo sapiens, UniProt Q99828)
T1 construct: made in house; host or cells: BL-21 plus RIL cells (E. coli)
T1 sequence (Q99828 1-191): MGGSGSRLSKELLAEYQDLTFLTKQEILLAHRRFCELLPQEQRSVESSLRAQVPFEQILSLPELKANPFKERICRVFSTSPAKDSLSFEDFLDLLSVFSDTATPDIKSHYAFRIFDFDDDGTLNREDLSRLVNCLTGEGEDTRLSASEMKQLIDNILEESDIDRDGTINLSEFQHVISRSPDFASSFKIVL

T2: CIB1-(His)6 (Homo sapiens, UniProt Q99828)
T2 construct: made in house
T2 sequence (Q99828 1-191): T1 sequence (Q99828 1-191)

T3: CIB1-(His)6 : F-αIIb peptide (Homo sapiens, UniProt Q99828)
T3 construct: made in house
T3 sequence (Q99828 1-191): T1 sequence (Q99828 1-191)

T4: CIB1 and αIIb interaction (GST-CIB1 : F-αIIb peptide) (Homo sapiens, UniProt Q99828)
T4 construct: made in house; host or cells: BL-21 plus RIL cells (E. coli)
T4 sequence (Q99828 1-191): T1 sequence (Q99828 1-191)

T5: CIB1-(His)6 protein (UniProt Q99828 9-191)
T5 construct: source: purified using a Ni-NTA resin column
T5 sequence: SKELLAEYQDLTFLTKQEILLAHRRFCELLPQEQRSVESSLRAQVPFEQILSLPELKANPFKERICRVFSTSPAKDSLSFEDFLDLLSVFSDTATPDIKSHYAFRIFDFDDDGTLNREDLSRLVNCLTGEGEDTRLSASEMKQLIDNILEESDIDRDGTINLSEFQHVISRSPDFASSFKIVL

T6: F-scrambled αIIb-peptide (FITC-labeled scrambled control peptide)
T6 construct: scrambled order of the αIIb peptide's residues; also called labeled scrambled-peptide; scrambled peptide; source: synthetic peptide (custom synthesized, Peptide 2.0, purity 95.37%)
T6 peptide: Ac-RKLFVKVMFWRLNGAK-{FITC″}

B1: FITC-labeled αIIb peptide from the cytoplasmic domain of integrin αIIb (peptide)
peptide: Ac-LVLAMWKVGFFKRNRK-{FITC′}
notes: integrin αIIb, stretch at the start of the cytoplasmic domain; last printed residue of the peptide; The C-terminal K probably carries the FITC (surmised); also called F-αIIb; F-αIIb peptide; source: synthetic peptide (custom synthesized, Peptide 2.0, purity 95.83%)
B2: GST-tagged recombinant CIB1 (calcium- and integrin-binding protein 1) (natural protein)
chain: T5 sequence
notes: Printed molecular weight of GST-CIB1 is 48 kDa against 26 kDa for GST alone, which would fit whole CIB1 (surmised); Vector family pGEX-4T is named for the empty vector; also called GST-CIB1; CIB1-GST
B3: unlabeled αIIb peptide (peptide)
peptide: Ac-LVLAMWKVGFFKRNRK
notes: integrin αIIb, stretch at the start of the cytoplasmic domain; last printed residue of the peptide; also called unlabeled peptide; source: synthetic peptide (custom synthesized, Peptide 2.0, purity >95.00%)

Tests used:
[1] = biological target: T1, CIB1 and αIIb interaction (CIB1-GST : F-αIIb peptide); assay: FP assay, 1536-well qHTS format (primary and confirmatory screen); type: binding; details: over the concentration range tested
[2] = In vitro ADME: PAMPA permeability
[3] = In vitro ADME: solubility; type: physicochemical; details: read-out: Solubility
CIB1-(His)6 = biological target: T2, CIB1-(His)6; assay: Microscale thermophoresis (MST) protein and small-molecule binding
Experimental: Determining a direct measurement of a molecule’s binding interaction with its target is a vital parameter for characterizing a chemical probe. We employed microscale thermophoresis (MST) for this purpose, leveraging its sensitivity and capacity to deliver quantitative data on the binding interaction.[35] […] We began by testing increasing amounts of the compound(s) and incubating them with the fluorescently labeled CIB1-(His)6, followed by the detection of the MST traces on the NT automated instrument (for more details see Materials and Methods Section). […] We were able to rule out compound interference with the histidine tag on CIB1 and/or the fluorophore used for the MST assay by testing the compounds with a fluorescently labeled hexa-histidine peptide (Figure S8B).
The binding affinity of the compounds to the CIB1-(His)6 protein was evaluated using microscale thermophoresis (MST). The recombinant protein was labeled with a fluorophore using Monolith His-tag labeling RED-tris-NTA second Generation kit (Nanotemper Technologies, Munich, Germany) following the manufacturer’s protocol. Compounds were titrated in a 2-fold dilution series (16 points, final concentration range of 6.1 nM to 200 μM) and incubated with the same volume of 50 nM (final concentration; 25 nM RED-tris-NTA) labeled recombinant protein for 30 min at RT (20 μL final assay volume). […] The dissociation constant (Kd) values were calculated by fitting the thermophoresis signal at 20 s of the thermograph using the MO Affinity Analysis software (Nanotemper Technologies, Munich, Germany) and confirmed using GraphPad Prism.

washed human platelets = assay: Human platelet aggregation assay (thrombin-induced); type: cell-based; details: for inhibition at 10 µM: Homo sapiens, Platelet, single concentration of 10 μM (n = 3), thrombin; for Thrombin Assay 10 µM (%): platelet aggregation inhibition at 10 µM
Description: A classical challenge in target-based drug discovery is moving from biochemical to cellular assay and the essential step of determining if the compounds of interest can perform in a cellular context. After characterization of the compounds in a series of biochemical assay formats, our next step was to assess their activity in a cellular environment. Our previous studies have shown that the interaction of the cytoplasmic domain of integrin αIIbβ3, a key regulator of platelet aggregation, with CIB1, is involved in downstream signaling in platelet activation and aggregation. We sought to determine whether our candidate compounds were inhibiting this interaction by evaluating them for platelet function in a human platelet aggregation assay. We prepared platelet-rich plasma (PRP) and washed the platelets as previously described[44] and then performed a platelet aggregation assay using the washed platelet suspensions (2 × 10^8/platelets/mL) followed by the recording of aggregation traces (see Materials and Methods Section). To induce platelet aggregation, 0.03 U/mL of thrombin, a physiological agonist of platelet activation, was used.
Figure 6 Effect of compounds on human platelet activation. Representative platelet aggregation tracings of washed human platelet suspensions pretreated for 30 min at 37 °C with vehicle (DMSO) or compounds at indicated concentrations followed by activation with thrombin (0.03–0.1 U/mL). Panel (A): NCGC00071855. Panel (B–D): NCGC00351170. Panel (E): CD62P exposure was in the presence of NCGC00351170. Data represents mean ± SEM, n = 4 individual experiments; ns = non significant *P < 0.05, ***P < 0.001, ****P < 0.0001.
Whole blood was drawn by venipuncture from healthy adult volunteers (of both gender and race) with informed consent. Approval was obtained from the institutional review boards of Thomas Jefferson University, according to the Declaration of Helsinki. Blood was collected in acidified citrate dextrose as an anticoagulant. Platelet-rich plasma (PRP) and washed platelets were prepared, as previously described.[44] Platelet aggregation was performed using washed platelet suspensions containing 2 × 10^8 platelets/mL using a Chrono-Log Lumi-Aggregometer (Chrono-Log), as described previously.[11] Aggregation traces were recorded by using Aggrolink software (Chrono-Log). Thrombin-induced P-selectin (CD62P) exposure was performed using Accuri C6 flowcytometer (BD Bioscience) as described previously.[11]
Figure S9: Effect of compounds on human platelet activation. Representative platelet aggregation
tracings of washed human platelet suspensions treated with vehicle (DMSO) or indicated
compounds at 10 μM for 30 minutes at 37 °C followed by activation with thrombin (0.03U/mL).

[4] = biological target: T3, CIB1-(His)6 : F-αIIb peptide; assay: MST competitive binding study
Experimental: We sought to resolve this discrepancy by performing a competition binding study similar to the conditions of the FP HTS assay by utilizing the F-αIIb probe.
Figure 4 MST competitive binding assay. We selected 200 nM F-αIIb and a CIB1 concentration of 4 μM and tested both compounds. […] Panel (B) highlights the concentration range in which we observe different activities between the two compounds.
The binding affinity of the compounds to the CIB1-(His)6 protein in the presence of αIIb peptide was evaluated using FITC-labeled αIIb as well. Following manufacturer’s recommendation,[66] we first determined a minimum concentration of F-αIIb by performing a titration of the fluorophore (1 μM, 1:2, 8-points; final concentration range of 7.8 nM to 1 μM) in a 10 μL assay volume. Solutions were placed in standard capillaries and evaluated for the fluorescent signal using the Monolith NT.115 instrument. […] CIB1-(His)6 protein was titrated in a 2-fold dilution series (16-points, final concentration range of 15 nM to 500 μM), at a final volume of 12.5 μL. An equal volume of [2×] […] Solutions were placed in standard capillaries, incubated for approximately 1 h, and evaluated for a fluorescent signal with 50% LED excitation power, 20, 40, or 60% MST power (low, medium, high, respectively), MST on-time of 30 s, and off-time of 5 s.
Compounds were titrated in a 2-fold dilution series (16 points, final concentration range of 6.1 nM to 200 μM) and mixed with an equal volume CIB1-(His)6 protein and F-αIIb peptide (final concentrations of 4 μM and 200 nM, respectively). Solutions were incubated for 1 h at RT, then placed in standard capillaries, and evaluated for fluorescent signal (in triplicate) at the following parameters: 50% LED excitation power, 40% MST power, MST on-time of 30 s, and off-time of 5 s using Monolith NT.115 instrument. Dissociation constant (Kd) values were calculated by fitting the thermophoresis signal at 20 s of the thermograph using the MO Affinity Analysis software (Nanotemper Technologies, Munich, Germany) and confirmed using Graphpad Prism 7.

[5] = biological target: T4, CIB1 and αIIb interaction (GST-CIB1 : F-αIIb peptide); assay: FP assay, 384-well format (screen); type: binding
[6] = biological target: T4, CIB1 and αIIb interaction (GST-CIB1 : F-αIIb peptide); assay: FP assay, 96-well format (assay development); type: binding; details: GST-CIB1 1 μM, F-αIIb peptide 100 nM, pre-incubated 1 h, read-out: half maximal inhibitory concentration (IC50)
[7] = In vitro ADME: RLM stability; details: rat liver microsomes; read-out: Rat Liver Microsome Stability (t1/2)
CIB1-(His)6 protein = biological target: T5, CIB1-(His)6 protein; assay: MST; 200 nM F-αIIb with CIB1-(His)6 titrated 15 nM to 500 μM (16 points); about 1 h; medium (40%) MST power, Monolith NT.115; details: both partners purified
[8] = biological target: B1; details: both partners purified
[9] = biological target: T6, F-scrambled αIIb-peptide (FITC-labeled …); details: both partners purified
[10] = biological target: B2; details: both partners purified
[11] = biological target: B2; assay: fluorescence polarisation; competition, 384-well plate; GST-CIB1 1 or 2 μM, F-αIIb 50 nM, unlabeled αIIb peptide 16-point 1:2 dilution (3.05 nM to 100 μM), points >25 μM excluded; room temperature, 1 h; details: both partners purified

**Q.** Which “activity in the qHTS assay” value [1] does the source give for `O=C(c1ccc(-c2ccccc2)cc1)c1no[n+]([O-])c1C(=O)c1ccc(-c2ccccc2)cc1` [NCGC00351154-01] here?
**A.** inactive

**Q.** And the Papp [2]?
**A.** < 3 ×10⁻⁶ cm/s

**Q.** What about the solubility [3] of the same molecule?
**A.** 1 µg/mL (≈ 2.24 µM)

**Q.** What about the Kd (CIB1-(His)6; MST, fluorescently labeled CIB1-(His)6 50 nM, read-out: equilibrium dissociation constant (Kd)) of the same molecule?
**A.** 6.7 µM

**Q.** What about the “difference in binding affinity” value (CIB1-(His)6; NCGC00351154 vs NCGC00351170 Kd) of the same molecule?
**A.** 2.3 fold

**Q.** And the inhibition at 10 µM (washed human platelets)?
**A.** 16%

**Q.** And the “Thrombin Assay 10 µM (%)” value (washed human platelets)?
**A.** 16%

**Q.** What about the EC50 ([4]; 200 nM F-αIIb, 4 μM CIB1-(His)6, n = 3/concentration) of the same molecule?
**A.** 29 µM

**Q.** And the “difference between the two compounds (EC50)” value ([4]; NCGC00351154 vs NCGC00351170)?
**A.** 13.8 fold

**Q.** What does the source list for “Ac-LVLAMWKVGFFKRNRK [unlabeled αIIb peptide, reference compound]”?
**A.** IC50 ([5]; 384-well, F-αIIb 50 nM, GST-CIB1 1 or 2 μM, RT 1 h, read-out: IC50): ~2.7 µM and ~3 µM; IC50 [6]: 11.2 µM

**Q.** Which results are given for `O=C(c1ccccc1C(F)(F)F)c1no[n+]([O-])c1C(=O)c1ccccc1C(F)(F)F` [NCGC00351167-01]?
**A.** IC50 ([5]; 384-well FP assay, Table 1, read-out: FP assay IC50): 6.68 µM; Papp [2]: < 12.4 ×10⁻⁶ cm/s; half-life [7]: 2.34 min; solubility [3]: < 1 µg/mL; inhibition at 10 µM (washed human platelets): 84%; Thrombin Assay 10 µM (%) (washed human platelets): 84%

**Q.** For B1, which Kd (CIB1-(His)6 protein) is on record?
**A.** 2600 nM

**Q.** With B2 as the molecule, how does the EC50 [8] read?
**A.** ~200 nM

**Q.** What about the EC50 [9] of the same molecule?
**A.** 1600 nM

**Q.** With B3 as the molecule, how does the IC50 [10] read?
**A.** ~12 µM and 8.6 µM

**Q.** What about the IC50 [11] of the same molecule?
**A.** ~2700 nM
